Assay results published in patent publication US9851354B2, “Methods of treating fragile X syndrome and related disorders” (Alcobra Ltd., priority 2013, dated 2017).
Entries after “also recorded” stand apart in the source; their conditions may differ.

Experiments:
[1] = system: Fmr1 knockout (KO) or Wild Type (WT) mice; assay: Y-maze reference memory task (rewarded); type: in vivo, mouse; conditions: 2 months old, 150 mg/kg once daily 7 days, Study 1
Description: (§1) Fmr1 knockout mice (KO2) mice (The Dutch-Belgium Fragile X Consortium, 1994), initially obtained from the Jackson Laboratory, and wild type (WT) littermates were generated on a C57BL/6J background and repeatedly backcrossed onto a C57BL/6J background for more than eight generations. The Fmr1 knockout mice were housed in groups of the same genotype in a temperature and humidity controlled room with a 12-h light-dark cycle (lights on from 7 am to 7 pm; testing was conducted during light phase). Room temperature and humidity were recorded continuously in the holding room while food and water were available ad libitum. Testing was conducted on healthy Fmr1 knockout mice and their wild type littermates (N=10 mice per treatment group) at 2 or 6 months of age during the behavioral experiments. Mice were housed in commercial plastic cages and experiments were conducted in line with the requirements of the UK Animals (Scientific Procedures) Act, 1986. All experiments were conducted with experimenters blind to genotype and drug treatment. Animals were allowed a minimum acclimatization period of one week prior to performing any experiment. No prophylactic or therapeutic treatment was administered during the acclimatization period.
(§2) In all cases, saline was used as a vehicle (control).
Two tasks were implemented. The first was an unlearned assessment of spontaneous alternation between arm entries. […]

[2] = system: Fmr1 knockout (KO) or Wild Type (WT) mice; assay: T-maze rewarded alternation task; type: in vivo, mouse; conditions: 2 months old, 150 mg/kg once daily 7 days, Study 1
Description: as §1, §2
An elevated or enclosed apparatus in the form of a T (placed horizontally) was used. […]

ERK = assay: Lymphocyte pERK (flow cytometry); type: in vivo, mouse; conditions: Fmr1 KO mice, 2 months old
Description: as §2
The Ras-Mek-ERK and PI3K-Akt-mToR signaling pathways are involved in mediating activity dependent alterations in gene transcription underlying changes in synaptic plasticity (Klann and Dever, 2004). Phosphorylated ERK and Akt protein expression was measured by western blot analysis as previously described by Lopez Verrilli (Lopez Verrilli et al., 2009). The antibodies employed were anti-phosphospecific antibodies against Akt (1/1000) and kinase (ERK) 1/2 (1/2000) (Cell Signaling Technology, Danvers, Mass., USA). The antibody against phospho-ERK detects phosphorylation at phospho-ERK 1/2 (Thr202/Tyr204) whereas the antibody against phospho-Akt detects phosphorylation at phospho-Akt (Thr308). Total Akt and ERK 1/2 protein content and phosphorylated ERK and Akt were evaluated by blotting membranes with antiphospho-Akt (1/1000) and antiphospho-ERK antibodies (1/2000) (Cell Signaling Technology, Danvers, Mass., USA). Akt or ERK phosphorylation was normalized to protein content in the same sample and expressed as % of change with respect to basal conditions, considering basal levels as 100%. Protein loading was evaluated by stripping and re-blotting membranes with j-actin antibody (1/1000) (Sigma-Aldrich, St. Louis, Mo., USA). Phosphorylated ERK and Akt protein expression in blood lymphocytes was measured by flow cytometry. For lymphocyte biomarker determinations, a FACStar plus (Becton Dickinson) was used with the excitation laser tuned at 488 nm and green fluorescence from FITC (GST) was collected through a 515-545 nm bandpass filter. The mean FITC fluorescence Intensity was calculated in relation to the fluorescence of reference cells. The mean cellular fluorescence intensity (MFI) is directly proportional to the mean number of Ab molecules bound per cell.

[3] = cited from earlier work

SMILES: Cc1ncc(CO)c(CO)c1O.O=C1CC[C@@H](C(=O)O)N1 [metadoxine, pyridoxol L,2-pyrrolidon-5 carboxylate]
- Y-maze rewarded reference memory learning (appropriate arm entries) ([1]; Fmr1 KO mice): reduced this deficit
- Y-maze rewarded reference memory learning ([1]; WT mice): No Effect on WT Mice
- T-maze rewarded alternation working memory (latency to reach the correct arm) [2]: reversal being partial; also recorded: significant improvement in memory
- lymphocyte pERK (ERK; 150 mg/kg ip once daily 7 days): normalized overactivated ERK
- lymphocyte pERK (ERK; 150 mg/kg oral once daily 7 days): normalized overactivated ERK
- lymphocyte pERK (ERK; 300 mg/kg oral once daily 7 days): normalized overactivated ERK
- mean half life ([3]; human serum, Lu Yuan et al. 2007): about 0.8 hour
- half-life in human serum ([3]; human serum, no appreciable differences between oral and intravenous administration): 40 to 60 min
- oral bioavailability ([3]; oral): 60-80%
